Measurements taken from patent US4758312A, “Method for in situ corrosion detection using electrochemically active compounds” (Nalco Chemical Company, priority 1987, dated 1988).

Key:
[1] = Commercial tetrazolium compounds, detection of iron corrosion (Example 4); conditions: 0.1 percent solution, one percent sodium chloride
[2] = Corrosion detection under typical cooling water conditions in recirculation tank (Example 7); conditions: continuous 4 ppm feed from day 4, Inhibitor A
[3] = Water solubility of reduced form (formazan); type: physicochemical; conditions: formazan of the synthesized tetrazolium compound
Text: Because the reduced forms of the commercially available tetrazolium salts tested in Example 4 are insoluble, they would present a measurement problem when used in an actual corrosion detection test. The reduced form (the formazan) would precipitate at the corrosion site and be difficult to detect quantitatively in the water sample taken far from the corrosion site. Introduction of a functional group to give water solubility to the reduced form was done to eliminate this problem. Examples of such functional groups are carboxy (COOH), hydroxy (OH), sulfonic (OSO3 H), amino (NH2), etc. These could be introduced on any of the three "R" groups in the generalized tetrazolium structure given below by choosing the appropriate organic compound to be used in the synthesis. [drawing 4]

SMILES	Time to Color [1] [min]	Formazan level, stabilized [2]	Water solubility of formazan formed [3]
c1ccc(-c2nn(-c3ccccc3)[n+](-c3ccc(-c4ccc(-[n+]5nc(-c6ccccc6)nn5-c5ccccc5)cc4)cc3)n2)cc1 [Compound 8 (Table 6), 2,2',5,5'-tetraphenyl-3,3'(p-diphenylene)ditetrazolium chloride]	35		
O=C(O)c1ccc(-n2nc(-c3ccccc3)n[n+]2-c2ccccc2)cc1 [tetrazolium compound, 2-(p-carboxyphenyl)-3,5-diphenyltetrazolium bromide]		2-3 ppb	water soluble
